Data reported in US20220056012A1, “AMORPHOUS FORM OF A MALT1 INHIBITOR AND FORMULATIONS THEREOF” (Janssen Pharmaceutica NV, priority 2020, published 2022).

Assays:
Type in all cases: physicochemical
[1] = Hygroscopicity of crystalline form
[2] = Dissolution in 900 mL FaSSIF medium at pH 6.5 (FIG. 20); conditions: pH 6.5, capsules in blend
Procedure: FIG. 20: Dissolution rates of different compositions in 900 mL FaSSIF medium at pH 6.5. The different compositions are: 25 mg ASD capsule HPMC AS MG 1/3 in blend; 50 mg ASD capsule HPMC AS MG 1/1 in blend; 50 mg ASD capsule EL100-55 1/1 in blend; 50 mg LFHG PEG1500 (liquid filled) capsule; 100 mg capsule amorphous API in blend; 25 mg ASD capsule EL100-55 1/3 in blend; and 100 mg capsule crystalline API in blend.

[3] = Crystalline conversion of isolated amorphous Compound A on storage
[4] = Glass transition temperature (Tg) by DSC, Tg vs % RH; conditions: amorphous Compound A without polymer
Procedure: The Tg vs RH results for HPMCAS-LG amorphous SDDs (FIG. 18 and Table 10) show the Tg's range from 111 to 119° C. under dry conditions and are depressed down to 52 to 59° C. at 75% RH. Both dry and wet Tg increase with increased drug loading.

[5] = Stability of amorphous formulations by XRD at normal and accelerated conditions
Procedure: Stability of the prepared formulations of Compound A was measured by XRD at normal and accelerated conditions, showing that all the prepared formulations of the compound, be it alone or combined with a polymer, are amorphous.

[6] = 2-phase (SGF/FaSSIF) miniaturized dissolution of films; conditions: SGF-FaSSIF, 37° C., films with 200 μg Compound A
Procedure: In vitro, 2-phase (SGF/FaSSIF) miniaturized dissolution was performed, where the amount of dissolved compound A was monitored in function of time. Before starting the dissolution assay, the films were stored for one day at room temperature. By doing so, most of the residual solvent had evaporated. Actual dissolution experiments were performed in 96 1 mL glass vials using the Hamilton STAR plus liquid handling platform for both sampling and sample preparation. Before adding the dissolution media to the films, an equilibration time of approximately 60 minutes was needed to preheat the media to 37° C. After equilibration, 300 μL of preheated SGF (37° C., pH 1.3) was added to the amorphous solid dispersions. After 15 minutes of incubation in SGF, 600 μL of preheated concentrated FaSSIF (37° C., pH 10.5) was added to the samples. […] At predetermined time intervals, aliquots were withdrawn from the dissolution media and filtered through a 0.45 μm GHP membrane filter. Subsequently, the filtered solutions were quantitatively diluted (10×) with N-methylpyrrolidone (NMP) to prevent possible precipitation. The amount of dissolved compound A was determined by UPLC. Films were incubated at 37° C. throughout the entire assay. Experiments were performed in duplicate.

For O=C(Nc1ccnc(C(F)(F)F)c1)c1cnn(-c2cccc3c(=O)[nH]ccc23)c1C(F)(F)F [Form I, 1-(1-oxo-1,2-dihydroisoquinolin-5-yl)-5-(trifluoromethyl)-N-[2-(trifluoromethyl)pyridin-4-yl]-1H-pyrazole-4-carboxamide], the hygroscopicity [1] was “hygroscopic behavior” and the dissolution rate [2] was “dropped considerably”.

With O=C(Nc1ccnc(C(F)(F)F)c1)c1cnn(-c2cccc3c(=O)[nH]ccc23)c1C(F)(F)F [amorphous form of Compound A, 1-(1-oxo-1,2-dihydroisoquinolin-5-yl)-5-(trifluoromethyl)-N-[2-(trifluoromethyl)pyridin-4-yl]-1H-pyrazole-4-carboxamide] the “solid state after storage (stability DSC data)” value ([3]; 6 MOS at 40°/75% RH, open-dish) was “still amorphous”, the “crystalline conversion after exposure” value ([3]; 10% RH, 50° C., 28 days) was “no crystalline conversion” and the “crystalline conversion after exposure” value ([3]; 75% RH, 40° C., open condition, 6 months) was “no crystalline conversion”. The “crystalline conversion after exposure” value ([3]; 75% RH, 50° C., 28 days) was “no crystalline conversion”, the “crystalline conversion after exposure” value ([3]; 75% RH, 50° C., closed condition, 6 months) was “no crystalline conversion” and the glass transition temperature [4] was 133 °C. The glass transition temperature ([4]; listed as spray dried Compound A) was 132 °C, the XRD result ([5]; 40° C. closed 1M) was “amorph” and the XRD result ([5]; 40° C. closed 2M) was “amorph”. For the same compound, the XRD result ([5]; 40° C. closed 6M) was “amorph”, the XRD result ([5]; 40° C./75% RH open 6M) was “amorph” and the XRD result ([5]; 40° C/75% RH open 1M) was “amorph”. For the same compound, the XRD result ([5]; 40° C/75% RH open 2M) was “amorph”, the XRD result ([5]; 50° C. closed 1M) was “amorph” and the XRD result ([5]; 50° C. closed 2M) was “amorph”. For the same compound, the XRD result ([5]; 50° C. closed 6M) was “amorph”, the XRD result ([5]; RT closed 1M) was “amorph” and the XRD result ([5]; RT closed 2M) was “amorph”. For the same compound, the XRD result ([5]; RT closed 6M) was “amorph”, the XRD result ([5]; RT/56% RH open 1M) was “amorph” and the XRD result ([5]; RT/56% RH open 2M) was “amorph”. The XRD result ([5]; RT/56% RH open 6M) was “amorph”, the XRD result ([5]; T0) was “amorph” and the “initial release, concentration” value [6] was 60 to 80 µg/mL.
